Source: patent US10011584B2, “Polymorphic form of [5-fluoro-3-({2-[(4-fluorobenzene) sulfonyl]pyridin-3-yl}methyl)-2-methylindol-1-yl]-acetic acid” (Atopix Therapeutics Limited, priority 2014, dated 2018)
Each block holds one molecule with its values, some of them ahead of it.

Legend:
Type in all cases: physicochemical
[1] = Dynamic vapour sorption (DVS) with FT-Raman check pre- and post-measurement
Procedure: (§1) In the Examples the following conditions were used for measurements. • 1H-NMR: 1H-NMR spectra were recorded using a Bruker DPX300 spectrometer with a proton frequency of 300.13 MHz, a 30° excitation pulse, and a recycle delay of 1 s. 16 scans were accumulated. d6-DMSO was used as the solvent. • DSC: Differential scanning calorimetry was carried out with a Perkin Elmer DSC-7 instrument (closed gold sample pan under N2 atmosphere). • DVS (SPS): Sorption Measurement System SPS11-100n. The sample was placed in an Al crucible, and the sample was allowed to equilibrate at a given r.h. before starting a predefined humidity program. The used measurement program can be recognized in the corresponding figures (blue line). • FT-Raman spectroscopy: FT-Raman spectra were recorded on a Bruker RFS 100 FT-Raman system with a near infrared Nd:YAG laser operating at 1064 nm and a liquid nitrogen-cooled germanium detector. For each sample, a minimum of 64 scans with a resolution of 2 cm^−1 were accumulated. 300 mW laser power was used. The FT-Raman data are shown in the region between 3500 to 100 cm^−1. […] Sample preparation: The samples were generally measured without any special treatment other than the application of slight pressure to get a flat surface. […]
In order to examine the behaviour of Batch 1 in the presence of variable water vapour pressure, the sample was analyzed by DVS. […]

[2] = TG-FTIR thermogravimetry; details: 25° C. to 250° C., heating rate 10° C./min
Procedure: as §1
Batch 3 was analyzed by TG-FTIR in a temperature range of 25° C. to 250° C. and a heating rate of 10° C./min. […]

[3] = Thermodynamic stability of polymorphic forms (suspension equilibration of a mixture of forms, PXRD); details: for temperature range of thermodynamic stability (in words): enantiotropic polymorphs
Procedure: Polymorphic Form 2 has a melting signal at 196° C. as measured by differential scanning calorimetry and is stable at temperatures up to about 60-65° C.
A mixture with similar ratios of the products of Example 4, Experiment 15 (Form 1), Example 4, Experiment 9 (form 2+x) and Example 4, Experiment 6 (Form 2+Form 3) were suspended in acetonitrile and shaken for 13 days at 22° C. to give a product designated Product P24). The solid was recovered by filter centrifugation and characterized by PXRD. […] These signals could be assigned to (i) another crystalline form or (ii) the signals could not be detected for Product P24 because the diffractogram has a lower intensity.
Thus, after 13 days at 22° C. the PXRD corresponds to that of Form 2.

- phase transition of sample recovered from DVS ([1]; FT-Raman pre- and post DVS): no phase transition
- mass change at the end of the DVS measurement versus starting material ([1]; end humidity 50% r.h., scanning rate 5% r.h. per hour, cycle 50-0-95-50% r.h.): 0.6%
SMILES: Cc1c(Cc2cccnc2S(=O)(=O)c2ccc(F)cc2)c2cc(F)ccc2n1CC(=O)O [Batch 1, [5-fluoro-3-({2-[(4-fluorobenzene)sulfonyl]pyridin-3-yl}methyl)-2-methylindol-1-yl]-acetic acid]

- decomposition temperature [2]: > 160 °C
SMILES: Cc1c(Cc2cccnc2S(=O)(=O)c2ccc(F)cc2)c2cc(F)ccc2n1CC(=O)O [Batch 3, [5-fluoro-3-({2-[(4-fluorobenzene)sulfonyl]pyridin-3-yl}methyl)-2-methylindol-1-yl]-acetic acid]

- most stable form after suspension equilibration ([3]; mixture of Forms 1, 2 and 3 in acetonitrile, shaken 13 days at 22° C., PXRD): most stable form at room temperature
- temperature up to which the form is thermodynamically stable ([3]; upper limit of stability range of the polymorphic form): 60-65 °C
SMILES: Cc1c(Cc2cccnc2S(=O)(=O)c2ccc(F)cc2)c2cc(F)ccc2n1CC(=O)O [Form 2, [5-fluoro-3-({2-[(4-fluorobenzene)sulfonyl]pyridin-3-yl}methyl)-2-methylindol-1-yl]-acetic acid]

The next lines start with the molecule.

SMILES: Cc1c(Cc2cccnc2S(=O)(=O)c2ccc(F)cc2)c2cc(F)ccc2n1CC(=O)O [Form 1, [5-fluoro-3-({2-[(4-fluorobenzene)sulfonyl]pyridin-3-yl}methyl)-2-methylindol-1-yl]-acetic acid]
- temperature range of thermodynamic stability (in words) [3]: thermodynamically stable at high temperatures

SMILES: Cc1c(Cc2cccnc2S(=O)(=O)c2ccc(F)cc2)c2cc(F)ccc2n1CC(=O)O [Form 3, [5-fluoro-3-({2-[(4-fluorobenzene)sulfonyl]pyridin-3-yl}methyl)-2-methylindol-1-yl]-acetic acid]
- temperature range of thermodynamic stability (in words) [3]: stable at temperatures between the stability ranges of Forms 2 and 1
